Data taken from US4102884A, “14 β-Hydroxy 3-deoxycardenolides” (priority 1975, dated 1978).
“Also recorded” adds a separate entry of the source. Where two headings read alike, the source gives them in different places.

Assays:
[1] = test system: spontaneously beating atrial preparations; experiment: Inotropic effect (increase in contractility) in spontaneously beating atrial preparations; set-up: species or system guinea pigs; details: for inotropic effect, comparison in words: compared with digoxin and/or 3-deoxycannogenol; for EC (50% increase in contractility) / EC (30% increase in contractility) / EC (80% increase in contractility): Cavia porcellus; for EC (50% increase in contractility): read-out: Molar concentration causing 50% increase in contractility; for arrhythmogenicity relative to digoxin, in words: inotropic tests; for EC (30% increase in contractility): read-out: Molar concentration causing 30% increase in contractility; for EC (80% increase in contractility): read-out: Molar concentration causing 80% increase in contractility
Procedure: (§1) The inotropic effects have been determined with spontaneously beating atrial preparations derived from guinea pigs. The ATP-ase was obtained from the brain of the same animal and the methods of Okita et al (1973) and of Kupchan et al (1964) were employed. The lethal dose in cats was determined by the method of Chen.

[2] = cited from earlier work
[3] = test system: heart; details: literature; cited from earlier work
[4] = test system: ATP-ase; experiment: ATP-ase inhibition, methods of Okita et al (1973) and Kupchan et al (1964); type: biochemical, guinea pigs (brain); set-up: ATP-ase inhibition, % reversibility of inhibition: concentration or dose not given beside the values; details: for ATP-ase inhibition, % reversibility of inhibition / ATP-ase inhibition, % inhibition at a 1×10^-4 molar concentration: Table 2; for ATP-ase inhibition, comparison in words: compared with 3-deoxycannogenol and digoxin, or acetyl-strophanthidin
Procedure: as §1

[5] = test system: heart muscle; set-up: species or system guinea pigs; details: decreasing order of number of washings; inotropic tests
Procedure: as §1

[6] = Lipophilicity (statement in words); type: physicochemical
[7] = test system: cats; experiment: Lethal dose in cats, method of Chen; type: in vivo; details: compared with digoxin
Procedure: as §1

[8] = test system: cats; experiment: Emetic effects in cats, intravenous; type: in vivo; details: intravenous doses amounting to 1/10 and 1/100 of the lethal dose
[9] = Table 2, preliminary biological tests, 30%
[10] = Table I / Example 45, guinea pig atria

C[C@]12CC[C@@H]3[C@H]4CCCC[C@H]4CC[C@H]3[C@@]1(O)CC[C@@H]2C1=CC(=O)OC1 [19-nor analog, 14-hydroxy-19-nor-5β,14β-card-20(22)-enolide]
heart-activity, in words [1]: substantial heart-activities

C[C@@H]1O[C@@H](O[C@H]2C[C@@H](O)[C@]3(CO)[C@H]4[C@H](O)C[C@]5(C)[C@@H](C6=CC(=O)OC6)CC[C@]5(O)[C@@H]4CC[C@]3(O)C2)[C@H](O)[C@H](O)[C@H]1O [ouabain]
intravenous activity, onset and duration, in words [2]: high intravenous activity, fast onset and short duration of activity | oral activity, in words [2]: rather low oral activity

C[C@@H]1O[C@@H](OC2CC[C@@]3(CO)[C@@H](CC[C@@H]4[C@@H]3[C@@H](O)C[C@]3(C)[C@@H](C5=CC(=O)OC5)CC[C@]43O)C2)[C@H](O)[C@H](O)[C@H]1O (stereo partly drawn) [panoside]
cardiac activity, in words [3]: high cardiac activity; also recorded: highly potent

C[C@]12CC[C@H]3[C@@H](CC[C@H]4C=CCC[C@@]43CO)[C@@]1(O)CC[C@@H]2C1=CC(=O)OC1
ATP-ase inhibition, % reversibility of inhibition [4]: 81% | ATP-ase inhibition, % inhibition at a 1×10^-4 molar concentration [4]: 63% | Molar concentration causing 30% increase in contractility [1, 9]: inactive

CC(=O)O[C@@H]1C[C@]2(O)[C@H](CC[C@]3(C)[C@@H](c4ccc(=O)oc4)CC[C@@]32O)[C@@]2(C)CC[C@H](O)C=C12 [scillirosidin]
cardiac activity, in words [3]: high cardiac activity

C[C@]12CC[C@@H]3[C@H]4CCCC[C@H]4CC[C@H]3[C@@]1(O)CC[C@@H]2C1=CC(=O)OC1 [drawing 23]
ATP-ase inhibition, % reversibility of inhibition [4]: 76% | ATP-ase inhibition, % inhibition at a 1×10^-4 molar concentration [4]: 59%

C[C@H]1O[C@@H](O[C@H]2[C@@H](O)C[C@H](O[C@H]3[C@@H](O)C[C@H](O[C@H]4CC[C@@]5(C)[C@H](CC[C@@H]6[C@@H]5CC[C@]5(C)[C@@H](C7=CC(=O)OC7)CC[C@]65O)C4)O[C@@H]3C)O[C@@H]2C)C[C@H](O)[C@@H]1O [digitoxin, reference compound]
number of washings to remove the compound from the bath / ease of removal [5]: digitoxin > digoxin > 3-deoxycannogenol > 14,19-dihydroxy-5β,14β-carda-3,20(22)-dienolide > strophanthidin 3-acetate

C[C@]12CC[C@H]3[C@@H](CC[C@@H]4CCCC[C@@]43COC=O)[C@@]1(O)CC[C@@H]2C1=CC(=O)OC1 [19-formate of 3-deoxycannogenol, 19-formyloxy-14-hydroxy-5β,14β-card-20(22)-enolide]
inotropic effect, comparison in words [1]: substantial inotropic activity which equals about that of digoxin | inotropic effect, comparison in words ([1]; listed as 19-formate ester of 3-deoxycannogenol): less active than 3-deoxycannogenol | lipophilicity, in words [6]: more lipophilic

C[C@]12CC[C@H]3[C@@H](CC[C@@H]4CCCC[C@@]43CO)[C@@]1(O)CC[C@@H]2C1COC(=O)C1 (stereo partly drawn) [20(22)-dihydro analog, 3-deoxy-20.xi.,22-dihydrocannogenol]
heart-activity, in words [1]: substantial heart-activities

C[C@]12CCCC[C@H]1CC[C@@H]1[C@@H]2CC[C@]2(C)[C@@H](C3=CC(=O)OC3)CC[C@]12O [3-deoxydigitoxigenin, 14-hydroxy-5β,14β-card-20(22)-enolide]
cardiac activity, in words [3]: significantly less active than digitoxigenin

C[C@]12CCCC[C@H]1CC[C@@H]1[C@@H]2C[C@@H](O)[C@]2(C)[C@@H](C3=CC(=O)OC3)CC[C@]12O [3-deoxydigoxigenin]
ATP-ase inhibition, comparison in words [4]: comparable biological and inotropic effects and the ATP-ase inhibition as the 19-deoxygenated steroid acetyl-strophanthidin | IC50 ([4]; guinea pig brain ATP-ase, read-out: Molar concentration causing 50% ATP-ase inhibition): 68 µM | EC (50% increase in contractility) [1, 10]: 7.6 µM | inotropic effect, comparison in words [1]: comparable biological and inotropic effects | arrhythmogenicity relative to digoxin, in words [1]: much less arrhythomogenic relative to the anitropic activity than digoxin

C[C@]12CC[C@H]3[C@@H](CC[C@@H]4CCCC[C@@]43CO)[C@@]1(O)CC[C@@H]2C1COC(=O)C1 (stereo partly drawn) [drawing 21]
ATP-ase inhibition, % reversibility of inhibition [4]: 57% | ATP-ase inhibition, % inhibition at a 1×10^-4 molar concentration [4]: 45% | EC (30% increase in contractility) [1, 9]: 18.5 µM | EC (50% increase in contractility) ([1]; Table 2, preliminary biological tests): 40 µM

C[C@]12CC[C@H]3[C@@H](CC[C@@H]4C=CCC[C@@]43CO)[C@@]1(O)CC[C@@H]2C1=CC(=O)OC1 [14,19-dihydroxy-5β,14β-carda-3,20(22)-dienolide]
toxicity relative to digoxin, in words ([4]; basis not stated, only ATP-ase inhibition tabulated): appears to be less toxic than digoxin | ATP-ase inhibition, comparison in words [4]: generally between those of 3-deoxycannogenol and digoxin | EC (50% increase in contractility) [1, 10]: 2.8 µM | EC (30% increase in contractility) ([1]; Table I, guinea pig atria, 30%): 2.2 µM | EC (80% increase in contractility) ([1]; Table I, guinea pig atria): 4 µM | inotropic effect, comparison in words [1]: generally between those of 3-deoxycannogenol and digoxin | inotropic effect, comparison in words ([1]; listed as 3(4)-anhydrocannogenol): greater inotropic activity than digoxin, though it is less active than 3-deoxycannogenol | arrhythmogenicity relative to digoxin, in words [1]: considerably less arrhythomogenic than digoxin | number of washings to remove the compound from the bath / ease of removal [5]: digitoxin > digoxin > 3-deoxycannogenol > 14,19-dihydroxy-5β,14β-carda-3,20(22)-dienolide > strophanthidin 3-acetate

C[C@]12CC[C@H]3[C@@H](CC[C@@H]4C=CCC[C@@]43COC=O)[C@@]1(O)CC[C@@H]2C1=CC(=O)OC1
ATP-ase inhibition, % reversibility of inhibition [4]: 84% | ATP-ase inhibition, % inhibition at a 1×10^-4 molar concentration [4]: 41%

C[C@]12CC[C@H]3[C@@H](CC[C@H]4CCCC[C@@]43COC=O)[C@@]1(O)CC[C@@H]2C1=CC(=O)OC1
ATP-ase inhibition, % reversibility of inhibition [4]: 95% | ATP-ase inhibition, % inhibition at a 1×10^-4 molar concentration [4]: 42% | EC (30% increase in contractility) [1, 9]: 50 µM

CO[C@H]1C[C@H](O[C@H]2CC[C@]3(C)[C@H]4CC[C@]5(C)[C@@H](C6=CC(=O)OC6)CC[C@]5(O)[C@@H]4CC[C@]3(O)C2)O[C@H](C)[C@H]1O [cymaroside of 5β-hydroxydigitoxigenin]
cardiac activity, in words [3]: nearly twice as active as the cymaroside of digitoxigenin

CC(=O)O[C@H]1CC[C@]2(C=O)[C@H]3CC[C@]4(C)[C@@H](C5=CC(=O)OC5)CC[C@]4(O)[C@@H]3CC[C@]2(O)C1 [strophanthidin 3-acetate]
intravenous activity, onset and duration, in words [2]: high intravenous activity, fast onset and short duration of activity | oral activity, in words [2]: rather low oral activity | number of washings to remove the compound from the bath / ease of removal [5]: digitoxin > digoxin > 3-deoxycannogenol > 14,19-dihydroxy-5β,14β-carda-3,20(22)-dienolide > strophanthidin 3-acetate

C[C@]12CC[C@H]3[C@@H](CC[C@@H]4CCCC[C@@]43COC=O)[C@@]1(O)CC[C@@H]2C1=CC(=O)OC1 [drawing 19]
EC (30% increase in contractility) [1, 9]: 2.9 µM

C[C@]12CC[C@H]3[C@@H](CC[C@@H]4CCCC[C@@]43CO)[C@@]1(O)CC[C@@H]2C1=CC(=O)OC1 [3-deoxycannogenol, 19-hydroxy-3-deoxydigitoxigenin]
toxicity relative to digoxin (lethal dose), in words ([7]; cats): substantially lower than that of digoxin; also recorded: less than half as toxic as digoxin | therapeutic index, in words [7]: better therapeutic index | emetic effects [8]: no emetic effects | dissociation of inotropic activity from ATP-ase inhibition and lethality, in words [1]: strong dissociation of inotropic activity from ATP-ase inhibition and lethality | EC (50% increase in contractility) [1, 10]: 1.1 µM | EC (30% increase in contractility) ([1]; Table I, guinea pig atria, 30%): 0.72 µM | EC (80% increase in contractility) ([1]; Table I, guinea pig atria): 1.95 µM | arrhythmia, in words ([1]; at doses causing an increase of 90% of contractile force): no arrhythmia were observed | inotropic effect, comparison in words [1]: considerably more strongly than digoxin; also recorded: strong inotropic effect | arrhythmogenicity relative to digoxin, in words [1]: considerably less arrhythomogenic than digoxin | times more inotropic than digoxin ([1]; molar basis, relative to digoxin): 2-4 times | lipophilicity, in words [6]: considerably more lipohilic than the 19-oxygenated cardenolides obtained from natural sources | number of washings to remove the compound from the bath / ease of removal [5]: more readily removed from the bath, containing the heart muscle, by repeated washing, than digoxin and less readily than the more polar strophanthidin 3-acetate; also recorded: digitoxin > digoxin > 3-deoxycannogenol > 14,19-dihydroxy-5β,14β-carda-3,20(22)-dienolide > strophanthidin 3-acetate
